Reference: patent US12269803B2, “Krüppel-like factor 15 (KLF15) small molecule agonists in kidney disease” (United States Government as represented by the Department …, priority 2020, dated 2025)
pEC50: −log10 of the molar value. In brackets after ≈: the same amount, converted by molar mass. Entries after “also recorded” stand apart in the source; their conditions may differ.

Legend:
human podocytes [1] = experiment: Podocyte survival (Renilla, cell viability) after LPS treatment; assay type: cell-based; conditions: LPS-treated human podocytes
Procedure: (§1) FIG. 10A-D show representative data illustrating the dose-response curve and EC50 (FIG. 10A), KLF15 reporter activity (FIG. 10B), and Renilla activity (cell viability) (FIG. 10C) in LPS-treated HP, and the therapeutic efficacy in abrogating albuminuria (biomarker of kidney disease) in LPS-treated mice (FIG. 10D).
(§2) After the synthesis of these novel analogues, a primary screening assay was conducted.

KLF15 promoter [2] = experiment: KLF15 reporter human podocyte assay (HTS, dose-response, primary screening); assay type: cell-based; conditions: for KLF15 reporter activity, primary screening assay: 1 μM, 24 hr, vs DMSO; for maximal KLF15 reporter activity: dose escalation, at similar concentrations to DEX; for pEC50: dose-response curve, human podocytes, luciferase/renilla
Procedure: A stable reporter assay directed at KLF15 promoter region (4.3 kb region) was generated in human podocytes, a fragment of human KLF15 promoter upstream of the start codon, by amplifying and subcloning it into the firefly luciferase reporter plasmid (co-transfection with renilla to serve as internal controls). KLF15 promoter activity is measured as a ratio of luciferase to renilla activity. Using this reporter cell line, a cell-based HTS assay was developed using recently reported cell-seeding methodology specific to cultured podocytes (16).

human podocytes [3] = experiment: Toxicity to human podocytes in primary screening assay (Renilla, cell viability); assay type: cell-based; conditions: 1 μM, 24 hr
Procedure: as §2

KLF15 reporter = KLF15 reporter activity in LPS-treated human podocytes (podocyte stress model); assay type: cell-based
Procedure: as §1, §2

[4] = Stability in pH 7.4 phosphate buffer; assay type: physicochemical; conditions: 37° C., 1 μM
Procedure: Studies were carried out in pH 7.4 phosphate buffer. The buffer was prepared by combining 50 mL of 0.2 M KH2PO4 with 150 mL of H2O, and then adjusting to pH 7.4 with 10 N NaOH. The buffer was adjusted to pH 7.4 prior to initiating the experiments. […] Aliquots of the DMSO solutions were dosed into 0.5 mL of matrix, which had been pre-warmed to 37° C., at a final lead compound concentration of 1 μM. Individual tubes were dosed for each timepoint. The vials were kept in a benchtop Thermomixer for the duration of the experiment. At each time point (0, 30, 60, and 120 minutes), an equal volume of acetonitrile was added to the appropriate tubes. Samples were stored at 4° C. until the end of the experiment. After the final time point was sampled, the plate was mixed and then centrifuged at 3,000 rpm for 10 minutes. Aliquots of the supernatant were removed, diluted 1:1 into distilled water, and analyzed by LC-MS/MS.

[5] = Equilibrium solubility in aqueous buffers; assay type: physicochemical
Procedure: The pH 2.0 buffer was prepared by combining 50 mL of 0.2 M KCl with 150 mL of H2O, and then adjusting to pH 2.0 with 10 N HCl. […] The pH 7.4 buffer was prepared by combining 50 mL of 0.2 M KH2PO4 with 150 mL of H2O, and then adjusting to pH 7.4 with 10 N NaOH. At least 0.3 mg of powder for each lead compound was combined with 1 mL of each buffer to make a ≥0.3 mg/mL mixture. These samples were shaken on a Thermomixer® overnight at room temperature. The samples were then centrifuged for 10 minutes at 14,000 rpm. The supernatant was sampled and diluted in duplicate 10-, 100-, 1,000-, and 10,000-fold into a mixture of 1:1 buffer:acetonitrile (ACN) prior to analysis. […] Standard concentrations ranged from 1.0 μM to 0.3 nM.

LPS-treated mice = experiment: LPS-induced albuminuria murine model; assay type: in vivo; conditions: C57BL/6 mice, LPS 10 μg/g, subcutaneous minipump 3.5 μg/day for 48 hours, vs DMSO
Procedure: Referring to FIG. 10D, C57BL/6 mice were treated with lipopolysaccharide (LPS) at dose of 10 μg/g in two divided doses 24 hours apart intraperitoneally to induce podocyte injury and albuminuria.

human liver microsomes = experiment: Stability in human liver microsomes
Procedure: Mixed-gender human liver microsomes (Lot #1010420) were purchased from XenoTech. The reaction mixture, minus NADPH, was prepared as described below. […] The control compound, testosterone, was run simultaneously with the lead compounds in a separate reaction. The reaction mixture (without cofactor) was equilibrated in a shaking water bath at 37° C. for 3 minutes. The reaction was initiated by the addition of the cofactor, and the mixture was incubated in a shaking water bath at 37° C. Aliquots (100 μL) were withdrawn at 0, 10, 20, 30, and 60 minutes. Each lead compound and testosterone samples were immediately combined with 400 μL of ice-cold 50/50 acetonitrile (ACN)/H2O containing 0.1% formic acid and internal standard to terminate the reaction. The samples were then mixed and centrifuged to precipitate proteins. All samples were assayed by LC-MS/MS using electrospray ionization. The peak area response ratio (PARR) to internal standard was compared to the PARR at time 0 to determine the percent remaining at each time point. Half-lives and clearance were calculated using GraphPad software, fitting to a single-phase exponential decay equation.

KLF15 promoter [6] = experiment: KLF15 promoter activity in human podocytes, KLF15 agonist combined with dexamethasone; assay type: cell-based; conditions: for KLF15 promoter activity, single agent: alone (DEX 1 μM), vs DMSO-treated human podocytes; for KLF15 promoter activity, combination with DEX: vs DEX 1 μM
[7] = test system: Caco-2 cells (clone C2BBe1); experiment: Caco-2 permeability; assay type: in vitro ADME; conditions: for Papp AVG / Papp R1 / Recovery: 5 μM, 120 minutes; for Efflux Ratio / Significant Efflux: Caco-2; for Absorption Potential Classification: Caco-2, from Papp (A-to-B)
Procedure: Caco-2 cells (clone C2BBe1) were obtained from American Type Culture Collection (Manassas, VA). Cell monolayers were grown to confluence on collagen-coated, microporous membranes in 12-well assay plates. Details of the plates and their certification are shown below. The permeability assay buffer was Hanks' balanced salt solution containing 10 mM HEPES and 15 mM glucose at a pH of 7.4. The buffer in the receiver chamber also contained 1% bovine serum albumin. The dosing solution concentration was 5 μM of lead compound in the assay buffer. Cell monolayers were dosed on the apical side (A-to-B) or basolateral side (B-to-A) and incubated at 37° C. with 5% CO2 in a humidified incubator. Samples were taken from the donor and receiver chambers at 120 minutes. Each determination was performed in duplicate. The flux of lucifer yellow was also measured post-experimentally for each monolayer to ensure no damage was inflicted to the cell monolayers during the flux period. […] The apparent permeability (Papp) and percent recovery were calculated and provided.

[8] = pH 2, room temperature overnight
[9] = pH 4, room temperature overnight
[10] = pH 7.4, room temperature overnight
[11] = human liver microsomes, 1 μM, 37° C.
[12] = human liver microsomes, Clint = k/P

Row | Compound | podocyte survival after LPS treatment (human podocytes [1]) | KLF15 reporter activity, primary screening assay (KLF15 promoter [2]) | toxicity to human podocytes (human podocytes [3]) | KLF15 reporter activity after LPS treatment (KLF15 reporter) | maximal KLF15 reporter activity (KLF15 promoter [2]) | Percent Remaining 0 min [4] | Percent Remaining 30 min [4] | Percent Remaining 60 min [4] | Percent Remaining 120 min [4] | Solubility AVG [5, 8] | Solubility R1 [5, 8] | Solubility AVG [5, 9] | Solubility R1 [5, 9] | Solubility AVG [5, 10] | Solubility R1 [5, 10] | albuminuria (LPS-treated mice) | KLF15 promoter activity, single agent (KLF15 promoter [6]) | KLF15 promoter activity, combination with DEX (KLF15 promoter [6]; compound 0.5 μM + DEX 0.5 μM) | Papp AVG ([7]; A-to-B) | Papp R1 ([7]; A-to-B) | other results
1 | CSc1ccc(-c2nc(-c3ccc(O)cc3)no2)cc1 [BT514] | improved; also recorded: improve podocyte survival | significantly induced KLF15 reporter activity | no observed toxicity | improved KLF15 reporter activity | – | – | – | – | – | – | – | – | – | – | – | – | – | – | – | – | –
2 | CSc1ccc(NC(=O)Nc2ccc(B3OC(C)(C)C(C)(C)O3)cc2)cc1 [BT412] | improved; also recorded: improve podocyte survival | significantly induced KLF15 reporter activity | no observed toxicity | improved KLF15 reporter activity | higher maximal KLF15 reporter activity | – | – | – | – | – | – | – | – | – | – | – | – | – | – | – | –
3 | CSc1ccc(NC(=O)c2ccc(O)cc2)cc1 [BT501] | improve podocyte survival | significantly induced KLF15 reporter activity | no observed toxicity | – | higher maximal KLF15 reporter activity | 100 | 88.4 | 92.1 | 87.7 | 97.7 µM (≈ 25.3 µg/mL) | 99.7 µM (≈ 25.9 µg/mL) | 153 µM (≈ 39.7 µg/mL) | 157 µM (≈ 40.7 µg/mL) | 269 µM (≈ 69.8 µg/mL) | 279 µM (≈ 72.4 µg/mL) | significantly reduced albuminuria | significantly induced KLF15 promoter activity | synergistic effect | 35.5 10^−6 cm/s | 32.5 10^−6 cm/s | CLint (intrinsic clearance) (human liver microsomes; human, microsomes): 0.0387 mL/min/mg protein; Half-Life (human liver microsomes; human, microsomes): 35.8 min; Recovery ([7]; A-to-B): 66.7%; Papp AVG ([7]; B-to-A): 35 10^−6 cm/s; Papp R1 ([7]; B-to-A): 32.5 10^−6 cm/s; Recovery ([7]; B-to-A): 81.7%; Efflux Ratio [7]: 0.987; Significant Efflux [7]: No (Significant Efflux: ER ≥ 2.0 and Papp (B-to-A) ≥ 1.0 × 10^−6 cm/s); Absorption Potential Classification [7]: High (Papp (A-to-B) ≥ 1.0 × 10^−6 cm/s: High)
4 | CSc1ccc(NC(=O)Nc2ccc(C#N)cn2)cc1 [BT502] | improved | significantly induced KLF15 reporter activity | no observed toxicity | improved KLF15 reporter activity | higher maximal KLF15 reporter activity | 100 | 99.7 | 87 | 88.7 | 22.2 µM (≈ 6.31 µg/mL) | 21.8 µM (≈ 6.2 µg/mL) | 10.4 µM (≈ 2.96 µg/mL) | 10.4 µM (≈ 2.96 µg/mL) | 28.1 µM (≈ 7.99 µg/mL) | 28.4 µM (≈ 8.08 µg/mL) | significantly reduced albuminuria | significantly induced KLF15 promoter activity | synergistic effect | 15.2 10^−6 cm/s | 14.6 10^−6 cm/s | Half-Life (human liver microsomes; [11]): 17 min; Percent Remaining 0 min (human liver microsomes; [11]): 100; Percent Remaining 10 min (human liver microsomes; [11]): 63.9; Percent Remaining 20 min (human liver microsomes; [11]): 45.3; Percent Remaining 30 min (human liver microsomes; [11]): 29.6; Percent Remaining 60 min (human liver microsomes; [11]): 8.53; CLint (intrinsic clearance) (human liver microsomes; [12]): 0.0813 mL/min/mg protein; KLF15 promoter activity, combination with DEX (KLF15 promoter [6]; compound 100 nM + DEX 0.5 μM): synergistic effect; Recovery ([7]; A-to-B): 63.1%; Papp AVG ([7]; B-to-A): 7.34 10^−6 cm/s; Papp R1 ([7]; B-to-A): 6.35 10^−6 cm/s; Recovery ([7]; B-to-A): 67.1%; Efflux Ratio [7]: 0.481; Significant Efflux [7]: No (Significant Efflux: ER ≥ 2.0 and Papp (B-to-A) ≥ 1.0 × 10^−6 cm/s); Absorption Potential Classification [7]: High (Papp (A-to-B) ≥ 1.0 × 10^−6 cm/s: High)
5 | C[C@@H]1C[C@H]2[C@@H]3CCC4=CC(=O)C=C[C@]4(C)[C@@]3(F)[C@@H](O)C[C@]2(C)[C@@]1(O)C(=O)CO [DEX, dexamethasone, reference compound] | – | – | – | – | – | – | – | – | – | – | – | – | – | – | – | – | – | – | – | – | pEC50 (KLF15 promoter [2]): 5.27
6 | CSc1ccc(NC(=O)Nc2ccc(C)nc2)cc1 [BT503] | improved; also recorded: improve podocyte survival | significantly induced KLF15 reporter activity | no observed toxicity | improved KLF15 reporter activity | higher maximal KLF15 reporter activity | 100 | 90.6 | 87.6 | 80.5 | 343 µM (≈ 93.8 µg/mL) | 332 µM (≈ 90.8 µg/mL) | 17.3 µM (≈ 4.73 µg/mL) | 17.4 µM (≈ 4.76 µg/mL) | 34.5 µM (≈ 9.43 µg/mL) | 31.6 µM (≈ 8.64 µg/mL) | significantly reduced albuminuria | significantly induced KLF15 promoter activity | synergistic effect | 10.7 10^−6 cm/s | 13.1 10^−6 cm/s | pEC50 (KLF15 promoter [2]): ~8.15; Half-Life (human liver microsomes; [11]): 13 min; Percent Remaining 0 min (human liver microsomes; [11]): 100; Percent Remaining 10 min (human liver microsomes; [11]): 60.1; Percent Remaining 20 min (human liver microsomes; [11]): 35.3; Percent Remaining 30 min (human liver microsomes; [11]): 18.5; Percent Remaining 60 min (human liver microsomes; [11]): 3.3; CLint (intrinsic clearance) (human liver microsomes; [12]): 0.107 mL/min/mg protein; KLF15 promoter activity, combination with DEX (KLF15 promoter [6]; compound 10 nM + DEX 0.5 μM): synergistic effect; KLF15 promoter activity, combination with DEX (KLF15 promoter [6]; compound 100 nM + DEX 0.5 μM): synergistic effect; Recovery ([7]; A-to-B): 59.7%; Papp AVG ([7]; B-to-A): 9.7 10^−6 cm/s; Papp R1 ([7]; B-to-A): 9.06 10^−6 cm/s; Recovery ([7]; B-to-A): 69%; Efflux Ratio [7]: 0.909; Significant Efflux [7]: No (Significant Efflux: ER ≥ 2.0 and Papp (B-to-A) ≥ 1.0 × 10^−6 cm/s); Absorption Potential Classification [7]: High (Papp (A-to-B) ≥ 1.0 × 10^−6 cm/s: High)
7 | CC1(C)OB(c2ccc(C(N)=NO)cc2)OC1(C)C [BT506] | – | – | Toxicity | – | – | – | – | – | – | – | – | – | – | – | – | – | – | – | – | – | –
